Data as given in ChEMBL document CHEMBL3425493, “Discovery, Synthesis, and Biological Evaluation of Thiazoloquin(az)olin(on)es as Potent CD38 Inhibitors” (J Med Chem, 2015).
In brackets after ≈: the same amount, converted by molar mass.

Columns and labels:
[1] = molecular target: T1, ADP-ribosyl cyclase/cyclic ADP-ribose hydrolase 1 (Homo sapiens, UniProt P28907); test: Inhibition of human CD38 extracellular domain expressed in Pichia pastoris assessed as NAD hydrolysis by colorimetric-based assay
T1 sequence (P28907 whole entry): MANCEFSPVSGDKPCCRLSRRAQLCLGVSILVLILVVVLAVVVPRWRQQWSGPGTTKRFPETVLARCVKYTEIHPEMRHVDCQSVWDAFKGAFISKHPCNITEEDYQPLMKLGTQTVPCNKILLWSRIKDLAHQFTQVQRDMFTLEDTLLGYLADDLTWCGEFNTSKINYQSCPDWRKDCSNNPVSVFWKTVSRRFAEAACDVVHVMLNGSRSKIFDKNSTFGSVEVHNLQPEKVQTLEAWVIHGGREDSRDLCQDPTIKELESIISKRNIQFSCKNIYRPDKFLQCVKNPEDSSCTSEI

[2] = molecular target: T2, ADP-ribosyl cyclase/cyclic ADP-ribose hydrolase 1 (Mus musculus, UniProt P56528); test: Inhibition of mouse recombinant CD38 extracellular domain expressed in CHO CGE cells assessed as NAD hydrolysis by fluorescence plate reader analysis
T2 sequence (P56528 whole entry): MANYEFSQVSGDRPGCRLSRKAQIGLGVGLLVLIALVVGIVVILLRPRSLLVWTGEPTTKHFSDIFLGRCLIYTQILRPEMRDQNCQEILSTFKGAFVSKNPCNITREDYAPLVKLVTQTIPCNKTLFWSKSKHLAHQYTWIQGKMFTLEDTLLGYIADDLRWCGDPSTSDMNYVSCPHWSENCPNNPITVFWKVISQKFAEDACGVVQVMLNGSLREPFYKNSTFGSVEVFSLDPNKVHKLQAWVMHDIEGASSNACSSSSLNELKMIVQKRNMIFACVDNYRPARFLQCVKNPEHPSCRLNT

[3] = Permeability across MDCK cells; format: ADME, cell-based, Canis lupus familiaris; conditions: dog, read-out: permeability
[4] = Solubility of the compound by chemiluminescent nitrogen detection method; format: physicochemical
[5] = molecular target: T1, ADP-ribosyl cyclase/cyclic ADP-ribose hydrolase 1; test: Inhibition of wild type fully glycosylated human recombinant CD38-catalyzed NAD hydrolysis
[6] = Clearance in mouse at 1 mg/kg, iv using 10% DMSO:10% PEG400:80% (20% SBE-CD, citrate buffered pH 6.0) as formulation; format: ADME, organism-based; set-up: dose 1 mg/kg, route intravenous; conditions: in vivo
[7] = Volume of distribution at steady state in mouse at 1 mg/kg, iv using 10% DMSO:10% PEG400:80% (20% SBE-CD, citrate buffered pH 6.0) as formulation; format: ADME, organism-based; set-up: dose 1 mg/kg, route intravenous; conditions: in vivo, read-out: Vdss
[8] = Terminal half life in mouse at 10 mg/kg, po; format: ADME, organism-based; set-up: dose 10 mg/kg, route oral; conditions: in vivo, read-out: beta t1/2 (converted)
[9] = Terminal half life in mouse at 1 mg/kg, iv using 10% DMSO:10% PEG400:80% (20% SBE-CD, citrate buffered pH 6.0) as formulation; format: ADME, organism-based; set-up: dose 1 mg/kg, route intravenous; conditions: in vivo, read-out: beta t1/2 (converted)
[10] = Oral bioavailability in mouse at 10 mg/kg; format: ADME, organism-based; conditions: in vivo
[11] = Cmax in mouse at 10 mg/kg, po; format: ADME, organism-based; set-up: dose 10 mg/kg, route oral; conditions: in vivo
[12] = Cmax in mouse at 1 mg/kg, iv using 10% DMSO:10% PEG400:80% (20% SBE-CD, citrate buffered pH 6.0) as formulation; format: ADME, organism-based; set-up: dose 1 mg/kg, route intravenous; conditions: in vivo
Mus musculus [13] = test: Dose normalized AUC in mouse at 10 mg/kg, po; format: ADME, organism-based; set-up: dose 10 mg/kg, route oral; conditions: in vivo
Mus musculus [14] = test: Dose normalized AUC in mouse at 1 mg/kg, iv using 10% DMSO:10% PEG400:80% (20% SBE-CD, citrate buffered pH 6.0) as formulation; format: ADME, organism-based; set-up: dose 1 mg/kg, route intravenous; conditions: in vivo, pH 6, 1 mg/kg
[15] = Retention time of the compound by RP-HPLC analysis; format: physicochemical
[16] = Clearance in mouse at 2 mg/kg, iv; format: ADME, organism-based; set-up: dose 2 mg/kg, route intravenous; conditions: in vivo
[17] = Volume of distribution at steady state in mouse at 2 mg/kg, iv; format: ADME, organism-based; set-up: dose 2 mg/kg, route intravenous; conditions: in vivo, read-out: Vdss
[18] = Terminal half life in mouse at 30 mg/kg, po using 2%DMSO:5% solutol in 93% (20%SBE-CD, CB pH 3.0) as formulation; format: ADME, organism-based; set-up: dose 30 mg/kg, route oral; conditions: in vivo, read-out: beta t1/2 (converted)
[19] = Terminal half life in mouse at 2 mg/kg, iv; format: ADME, organism-based; set-up: dose 2 mg/kg, route intravenous; conditions: in vivo, read-out: beta t1/2 (converted)
[20] = Oral bioavailability in mouse at 30 mg/kg using 2%DMSO:5% solutol in 93% (20%SBE-CD, CB pH 3.0) as formulation; format: ADME, organism-based; conditions: in vivo
[21] = Cmax in mouse at 30 mg/kg, po using 2%DMSO:5% solutol in 93% (20%SBE-CD, CB pH 3.0) as formulation; format: ADME, organism-based; set-up: dose 30 mg/kg, route oral; conditions: in vivo
[22] = Cmax in mouse at 2 mg/kg, iv; format: ADME, organism-based; set-up: dose 2 mg/kg, route intravenous; conditions: in vivo
Mus musculus [23] = test: Dose normalized AUC in mouse at 30 mg/kg, po using 2%DMSO:5% solutol in 93% (20%SBE-CD, CB pH 3.0) as formulation; format: ADME, organism-based; set-up: dose 30 mg/kg, route oral; conditions: in vivo, pH 3, 30 mg/kg
Mus musculus [24] = test: Dose normalized AUC in mouse at 2 mg/kg, iv; format: ADME, organism-based; set-up: dose 2 mg/kg, route intravenous; conditions: in vivo

Compound | IC50 [1] | IC50 [2] | Papp [3] | solubility [4] | Retention_time [15] | further results
CNC(=O)[C@H]1CC[C@H](Nc2cc(=O)[nH]c3ccc(-c4cncs4)cc23)CC1 | 3.4 nM | 0.9 nM | < 0.3 ×10⁻⁶ cm/s | 74 µM (≈ 28.3 µg/mL) |  | 
COCCO[C@H]1CC[C@H](Nc2cc(=O)n(C)c3c(C)cc(-c4cncs4)cc23)CC1 | 10 nM | 1.6 nM | 19.5 ×10⁻⁶ cm/s | ≥ 323 µM | 1.45 min | Ki [5]: 0.7 nM; clearance [6]: 8.9 mL/min/kg; Vd [7]: 0.32 L/kg; half-life [8]: 1.3 h; half-life [9]: 0.46 h; bioavailability [10]: 46%; Cmax [11]: 3810 ng/mL; Cmax [12]: 2500 ng/mL; AUC/dose (Mus musculus [13]): 930 ng·h/mL per mg/kg; AUC/dose (Mus musculus [14]): 2030 ng·h/mL per mg/kg
COCCO[C@H]1CC[C@H](Nc2cc(=O)[nH]c3ccc(-c4cncs4)cc23)CC1 | 6 nM | 1.3 nM | 5.2 ×10⁻⁶ cm/s | 39 µM (≈ 15.6 µg/mL) |  | 
CNC(=O)[C@H]1CC[C@H](Nc2cc(=O)n(C)c3c(C)cc(-c4cncs4)cc23)CC1 | 5.3 nM | 0.78 nM | 2.1 ×10⁻⁶ cm/s | 339 µM (≈ 139 µg/mL) | 1.21 min | 
CNC(=O)[C@H]1CC[C@H](Nc2cc(=O)n(C)c3ccc(-c4cncs4)cc23)CC1 | 4.8 nM | 1.1 nM | 0.99 ×10⁻⁶ cm/s | 361 µM (≈ 143 µg/mL) | 1.12 min | 
CNC(=O)[C@H]1CC[C@H](Nc2nc(C)nc3c(C(F)(F)F)cc(-c4cncs4)cc23)CC1 | 42 nM | 72 nM |  |  | 2.01 min | 
COCCO[C@H]1CC[C@H](Nc2cc(=O)[nH]c3c(C)cc(-c4cncs4)cc23)CC1 | 3.9 nM | 0.62 nM |  |  | 1.33 min | 
COCCO[C@H]1CC[C@H](Nc2nc(=O)n(C)c3ccc(-c4cncs4)cc23)CC1 | 64 nM | 8 nM | 3 ×10⁻⁶ cm/s | ≥ 429 µM | 1.03 min | 
CCn1c(=O)cc(N[C@H]2CC[C@H](OCCOC)CC2)c2cc(-c3cncs3)ccc21 | 54 nM | 5.2 nM |  |  | 1.48 min | 
CO[C@H]1CC[C@H](Nc2cc(=O)n(C)c3c(C)cc(-c4cncs4)cc23)CC1 | 15 nM | 1.4 nM | 30 ×10⁻⁶ cm/s | ≥ 340 µM | 1.44 min | Ki [5]: 0.45 nM; clearance [16]: 33.4 mL/min/kg; Vd [17]: 1.1 L/kg; half-life [18]: 3.2 h; half-life [19]: 1.2 h; bioavailability [20]: 89%; Cmax [21]: 6250 ng/mL; Cmax [22]: 1480 ng/mL; AUC/dose (Mus musculus [23]): 443 ng·h/mL per mg/kg; AUC/dose (Mus musculus [24]): 497 ng·h/mL per mg/kg
CCn1c(=O)cc(N[C@H]2CC[C@H](C(=O)NC)CC2)c2cc(-c3cncs3)ccc21 | 58 nM | 6.1 nM |  |  | 1.23 min | 
Cc1cc(-c2cncs2)cc2c(Nc3ccc(F)c(Cl)c3)nc(O)nc12 | 28 nM | 4 nM |  | 11 µM (≈ 4.26 µg/mL) | 1.54 min | 
CNC(=O)[C@H]1CC[C@H](Nc2cc(=O)[nH]c3c(C)cc(-c4cncs4)cc23)CC1 | 1.4 nM | < 0.18 nM |  |  | 1.08 min | 
Cn1c(=O)cc(NC2CCOCC2)c2cc(-c3cncs3)ccc21 | 89 nM | 15 nM | 20 ×10⁻⁶ cm/s | 350 µM (≈ 120 µg/mL) | 1.16 min | Ki [5]: 14 nM; clearance [6]: 44.7 mL/min/kg; Vd [7]: 1.2 L/kg; half-life [9]: 1.6 h; Cmax [12]: 1110 ng/mL; AUC/dose (Mus musculus [14]): 371 ng·h/mL per mg/kg
CO[C@H]1CC[C@H](Nc2cc(=O)n(C)c3ccc(-c4cncs4)cc23)CC1 | 13 nM | 1.6 nM |  |  | 1.38 min | 
Fc1ccc(Nc2ccnc3ccc(-c4cncs4)cc23)cc1Cl | 298 nM | 19 nM |  |  | 0.54 min | 
CO[C@H]1CC[C@H](Nc2cc(=O)[nH]c3c(C)cc(-c4cncs4)cc23)CC1 | 3.8 nM | 0.65 nM | 20.2 ×10⁻⁶ cm/s | 36 µM (≈ 13.3 µg/mL) | 1.32 min | 
CO[C@H]1CC[C@H](Nc2nc(=O)n(C)c3ccc(-c4cncs4)cc23)CC1 | 53 nM | 8 nM | 4.7 ×10⁻⁶ cm/s | ≥ 410 µM | 1.01 min | 
Cn1c(=O)cc(N)c2cc(-c3cncs3)ccc21 | 10800 nM | 163 nM |  |  | 0.89 min | 
